Measurements: paper PMC9854762, “Antibiofilm and Anti-Quorum-Sensing Activities of Novel Pyrazole and Pyrazolo[1,5-a]pyrimidine Derivatives as Carbonic Anhydrase I and II Inhibitors: Design, Synthesis, Radiosterilization, and Molecular Docking Studies” (Antibiotics, 2023)
Converted amounts (≈) assume the structure as drawn.

What was measured:
[1] = system: S. pyogenes DH-3467; experiment: Broth microdilution MIC/MBC; format: cell-based, Streptococcus pyogenes; conditions: for MIC: Streptococcus pyogenes, DH3467, 24 h, read-out: MIC (Mean ± SEM); for MBC/MIC: value in brackets
Method: (§1) The broth microdilution method was taken as a basis to detect the MICs of pyrazole compounds against tested clinical isolates, according to the Clinical Laboratory and Standards Institute guidelines. The broth cultures were used to prepare the bacterial inoculums, and the suspensions were adjusted to the standard 0.5 McFarland turbidity. Stock solutions of the synthesized pyrazoles were prepared in pure DMSO and further serially diluted with TS broth in the concentration range from 128 µg/mL to 0.0625 µg/mL. A well containing noninoculated TS broth, free of any antimicrobial agents, was also included to ensure the medium sterility, while Erythromycin and Amikacin served as positive controls. Bacterial growth was determined by adding 20 µL of 0.5% TTC (2,3,5-triphenyltetrazolium chloride) aqueous solution. […] All experiments were repeated three times. The bactericidal effect from each concentration of the pyrazole and pyrazolo[1,5-a]pyrimidine derivatives showing growth inhibition was further studied. For this study, a loopful of 5 µL was taken from each no-visible growth tube and streaked onto plates of TS agar.

[2] = system: C. violaceum CV026; experiment: Quorum-sensing inhibition bioassay on Soft Top agar; format: cell-based, Chromobacterium violaceum; conditions: CV026 biosensor strain, sub-MIC
Method: The anti-QS potential of the tested compounds was explored as described. Briefly, an overnight bacterial suspension of the indicator organism C. violaceum CV026 was prepared in a concentration of 10^6 CFU/mL, and an aliquot of 200 µL was seeded in 5 mm of Soft Top agar (1.3 g agar, 2.0 g tryptone, 1.0 g NaCl, and 200 mL deionized water), supplemented with 20 µL of 0.25 µg/mL C6-HSL (N-hexanoyl-L-homoserine lactone), added as an exogenous AHL source. Wells were cut in the center of the plate after incubation for 30 min and then filled with 50 µL of sub-MICs of each most-active pyrazole hybrid. DMSO was used as a negative control. The plates were incubated at 28 °C for 48 h. Inhibition of violacein production by the indicator strain around the well, indicated by the presence of a white circle surrounded by a purple halo, was considered as positive for QS interference. For further investigation to determine the anti-QS activity for the pyrazole against the biofilm-forming bacterial isolates, an in vitro screening was performed. This was carried out by inoculation of 200 µL from an O/N CV026 culture onto plates of Soft Top agar. Wells of 8 mm diameter were separately made and filled with 90 µL of each biofilm-forming bacterial isolate (10^6 CFU/mL), plus 10 µL of each active pyrazole derivative (sub-MICs). Wells containing the bacterial isolates without treatment were used as controls. The signal diffusion zone diameter produced during the bacterial growth was measured in the presence of pyrazole and pyrazolo[1,5-a]pyrimidine derivatives and compared with the zone diameter of the violacein production by CV026.

[3] = system: P. aeruginosa DH-5698; experiment: Broth microdilution MIC/MBC; format: cell-based, Pseudomonus aeruginosa; conditions: for MIC: Pseudomonas aeruginosa, DH5698, 24 h, read-out: MIC (Mean ± SEM); for MBC/MIC: value in brackets
Method: as §1

[4] = system: E. faecalis DH-5478; experiment: Broth microdilution MIC/MBC; format: cell-based, Enterococcus faecalis; conditions: for MIC: Enterococcus faecalis, DH5478, 24 h, read-out: MIC (Mean ± SEM); for MBC/MIC: value in brackets
Method: as §1

[5] = system: tested isolates; experiment: Broth microdilution MIC/MBC, summary; format: cell-based
Method: as §1

[6] = system: A. baumannii DH-243; experiment: Broth microdilution MIC/MBC; format: cell-based, Acinetobacter baumannii; conditions: for MIC: Acinetobacter baumannii, DH243, 24 h, read-out: MIC (Mean ± SEM); for MBC/MIC: value in brackets
Method: as §1

[7] = system: S. aureus DH-432; experiment: Broth microdilution MIC/MBC; format: cell-based, Staphylococcus aureus; conditions: for MIC: Staphylococcus aureus, DH432, 24 h, read-out: MIC (Mean ± SEM); for MBC/MIC: value in brackets
Method: as §1

[8] = system: E. coli DH-5987; experiment: Broth microdilution MIC/MBC; format: cell-based, Escherichia coli; conditions: for MBC/MIC / MIC / MIC (Mean ± SEM): E. coli DH-5987; for MBC/MIC: value in brackets; for MIC / MBC: Escherichia coli, DH5987; for MIC / MIC (Mean ± SEM): 24 h; for MIC: read-out: MIC (Mean ± SEM); for MBC: E. coli
Method: as §1

[9] = system: Gram-positive isolates; experiment: Broth microdilution MIC/MBC, summary; format: cell-based
Method: as §1

[10] = system: Gram-negative isolates; experiment: Broth microdilution MIC/MBC, summary; format: cell-based
Method: as §1

For CCOC(=O)c1ccc(N=Nc2c(N=Cc3ccc(N(C)C)cc3)n[nH]c2N)cc1 [Compound 5a, Ethyl 4-((5-amino-3-((4-(dimethylamino)benzylidene)amino)-1H-pyrazol-4-yl)diazenyl)benzoate], the MIC [1] was 0.5 ± 0.1 µg/mL (≈ 1.23 µM), the MBC/MIC [1] was 0.5 and the “Concentration at which anti-QS activity (visible halo zone) was observed” value (“Concentration at which anti-QS activity” below) [2] was 0.187 µg/mL. The MIC [3] was 0.5 ± 0.1 µg/mL (≈ 1.23 µM), the MBC/MIC [3] was 0.5 and the MIC [4] was 0.5 ± 0.2 µg/mL (≈ 1.23 µM). For the same compound, the MBC/MIC [4] was 0.5, the MIC ([5]; other isolates (not S. aureus, E. coli)) was 0.5 µg/mL (≈ 1.23 µM) and the MIC [6] was 0.5 ± 0.3 µg/mL (≈ 1.23 µM). For the same compound, the MBC/MIC [6] was 0.5, the “MIC (Mean ± SEM)” value ([7]; 24 h) was 0.25 ± 0.2 µg/mL (≈ 0.617 µM) and the MIC [7] was 0.25 µg/mL (≈ 0.617 µM). It also gave an MBC/MIC [7] of 0.5, an MBC/MIC [8] of 0.5 and an MIC [8] of 0.25 µg/mL (≈ 0.617 µM).

For CCOC(=O)c1ccc(N=Nc2c(N)nn3c(N)c(C#N)c(-c4ccc(N(C)C)cc4)nc23)cc1 [Compound 9a, Ethyl-4-((2,7-diamino-6-cyano-5-(4-(dimethylamino)phenyl)pyrazolo[1,5-a]pyrimidin-3-yl)diazenyl)benzoate], the MIC [1] was 0.25 ± 0.2 µg/mL (≈ 0.532 µM), the MBC/MIC [1] was 0.5 and the “Concentration at which anti-QS activity” value [2] was 0.187 µg/mL. It also gave an MIC [3] of 0.375 ± 0.3 µg/mL (≈ 0.799 µM), an MBC/MIC [3] of 0.5 and an MIC [4] of 0.5 ± 0.1 µg/mL (≈ 1.06 µM). For the same compound, the MBC/MIC [4] was 0.5, the MBC [9] was 0.125 to 0.25 µg/mL (≈ 0.266 to 0.532 µM) and the MIC [9] was 0.25 to 0.5 µg/mL (≈ 0.532 to 1.06 µM). It also gave an MIC [6] of 0.375 ± 0.2 µg/mL (≈ 0.799 µM), an MBC/MIC [6] of 0.5 and an MIC [7] of 0.25 ± 0.2 µg/mL (≈ 0.532 µM). For the same compound, the MBC/MIC [7] was 0.5, the “MIC (Mean ± SEM)” value [8] was 0.125 ± 0.1 µg/mL (≈ 0.266 µM) and the MBC/MIC [8] was 0.5. The MBC [8] was 0.0625 µg/mL (≈ 0.133 µM) and the MIC [8] was 0.125 µg/mL (≈ 0.266 µM).

With CCOC(=O)c1ccc(N=Nc2c(N)nn3c(C)cc(C)nc23)cc1 [Compound 6, ethyl-4-((2-amino-5,7-dimethylpyrazolo[1,5-a]pyrimidin-3-yl)diazenyl)benzoate] the MIC [1] was 0.25 ± 0.3 µg/mL (≈ 0.739 µM), the MBC/MIC [1] was 0.5 and the “Concentration at which anti-QS activity” value [2] was 0.125 µg/mL. It also gave an MIC [3] of 0.375 ± 0.4 µg/mL (≈ 1.11 µM), an MBC/MIC [3] of 0.5 and an MIC [4] of 0.375 ± 0.2 µg/mL (≈ 1.11 µM). It also gave an MBC/MIC [4] of 0.5, an MIC ([5]; S. aureus, E. faecalis, and P. aeruginosa) of 0.187 to 0.375 µg/mL (≈ 0.553 to 1.11 µM) and an MIC [6] of 0.5 ± 0.1 µg/mL (≈ 1.48 µM). It also gave an MBC/MIC [6] of 0.5, an MIC [7] of 0.187 ± 0.1 µg/mL (≈ 0.553 µM) and an MBC/MIC [7] of 0.5. The MBC/MIC [8] was 0.5 and the MIC [8] was 0.25 ± 0.1 µg/mL (≈ 0.739 µM).

In the case of CCOC(=O)c1ccc(N=Nc2c(N)n[nH]c2N)cc1 [Compound 3a, Ethyl 4-((3,5-diamino-1H-pyrazol-4-yl)diazenyl)benzoate], the MIC [1] is reported as 0.125 ± 0.3 µg/mL (≈ 0.456 µM), the MBC/MIC [1] is reported as 0.5 and the “Concentration at which anti-QS activity” value [2] is reported as 0.0625 µg/mL. The MIC [3] was 0.125 ± 0.2 µg/mL (≈ 0.456 µM), the MBC/MIC [3] was 0.5 and the MIC [4] was 0.125 ± 0.1 µg/mL (≈ 0.456 µM). It also gave an MBC/MIC [4] of 0.5, an MIC [10] of 0.062 to 0.25 µg/mL (≈ 0.226 to 0.911 µM) and an MIC [9] of 0.125 µg/mL (≈ 0.456 µM). The MIC [6] was 0.25 ± 0.2 µg/mL (≈ 0.911 µM), the MBC/MIC [6] was 0.5 and the MIC [7] was 0.125 ± 0.3 µg/mL (≈ 0.456 µM). It also gave an MBC/MIC [7] of 0.5, an MBC/MIC [8] of 0.5 and an MIC [8] of 0.0625 ± 0.4 µg/mL (≈ 0.228 µM).

In the case of CCOC(=O)c1ccc(N=Nc2c(N)nn3c(O)c(C#N)c(-c4ccc(N(C)C)cc4)nc23)cc1 [Compound 10a, Ethyl-4-((2-amino-6-cyano-5-(4-(dimethylamino)phenyl)-7-hydroxypyrazolo[1,5-a]pyrimidin-3-yl)diazenyl)benzoate], the MIC [1] is reported as 0.187 ± 0.2 µg/mL (≈ 0.397 µM), the MBC/MIC [1] is reported as 0.5 and the “Concentration at which anti-QS activity” value [2] is reported as 0.0625 µg/mL. For the same compound, the MIC [3] was 0.187 ± 0.1 µg/mL (≈ 0.397 µM), the MBC/MIC [3] was 0.5 and the MIC [4] was 0.187 ± 0.1 µg/mL (≈ 0.397 µM). The MBC/MIC [4] was 0.5, the MIC [6] was 0.375 ± 0.4 µg/mL (≈ 0.797 µM) and the MBC/MIC [6] was 0.5. The MIC [7] was 0.125 ± 0.2 µg/mL (≈ 0.266 µM), the MBC/MIC [7] was 0.5 and the “MIC (Mean ± SEM)” value [8] was 0.125 ± 0.2 µg/mL (≈ 0.266 µM). The MBC [8] was 0.0625 µg/mL (≈ 0.133 µM) and the MIC [8] was 0.125 µg/mL (≈ 0.266 µM).
